pIC50: −log10 of the molar value. Read-outs that look alike come from different tables or passages of the source.

Series [1] has as its system P. falciparum D6 (chloroquine sensitive) strain. Description: microbe, parasite or virus in culture. Particulars: for Chloroquine-Sensitive (D6)-Strain S. I.: selectivity index = IC50 for cytotoxicity (Vero)/IC50 for antiplasmodial activity; for pIC50 / IC50: Plasmodium falciparum. The series is classed as cell-based, Plasmodium falciparum.
Series [2] concerns P. falciparum W2 (chloroquine resistant) strain. Description: microbe, parasite or virus in culture. The series is classed as cell-based, Plasmodium falciparum. Particulars: for Chloroquine-Resistant (W2)-Strain S. I.: selectivity index = IC50 for cytotoxicity (Vero)/IC50 for antiplasmodial activity; for pIC50 / IC50: Plasmodium falciparum; for pIC50: W2, read-out: Chloroquine-Resistant (W2)-Strain IC50; for IC50: W2, read-out: Chloroquine-Resistant (W2)-Strain IC50 (ng/mL).

Series [3] relates to Vero cells (mammalian kidney fibroblasts). Description: in vitro. The series is classed as cell-based. Particulars: highest concentration tested […].
Series [4] relates to P. berghei (NK-65 strain). Description: In vivo antimalarial assay in mice infected with P. berghei. On the set-up: species or system mice (Swiss Webster). As to conditions: for Day of Death (post infection): one value per animal; for % Parasitemia Suppression Day 5 / % Parasitemia Suppression Day 7: vehicle control = 100% parasitemia, < 80% non-significant. The method, then: The protocol for in vivo antimalarial evaluation was approved by the University of Mississippi Institutional Animal Care and Use Committee (IACUC). The in vivo antimalarial activity was determined in mice infected with P. berghei (NK-65 strain). Male mice (Swiss Webster strain) weighing 18-20 g were intraperitoneally inoculated with 2 × 10^7 parasitized red blood cells obtained from a highly infected donor mouse. Mice were divided into different groups with five mice in each group. Compound stocks were prepared in DMSO and administered orally to the mice through gavage two hours after the infection (day 0). The animals were treated once daily for consecutive days (day 0 to 2) and were closely observed for at least 2 h after every dose for any apparent signs of toxicity. Blood smears were prepared on different days starting from 5 days post infection (through 28 days) by clipping the tail end, stained with Giemsa, and the slides were observed under microscope for determination of parasitemia. Mice without parasitemia through day 28 postinfection were considered as cured. Also, suppression in development of parasitemia was computed by comparing the parasitemia in the control vehicle treated group and groups treated with compound. The mean survival time was also computed for control and treated groups. The results are presented as parasitemia suppression of day 5 post treatment, mean survival time of mice in each group, cure and survival graphs computed by Prism 6.0. (San Diego, CA, USA).

A short description of series [5]: in vitro. The series is classed as cell-based. Particulars: African green monkey.
Series [6] deals with lettuce (Lactuca sativa cv. L., Iceberg). Description: In vitro phytotoxicity assay, lettuce. Particulars: 1 mg/mL; 10% acetone; scale of 0 to 5, 0 = no effect, 5 = no growth. How it is done: (§1) Herbicidal or phytotoxic activity of the extract and compounds was performed according to the published procedure using bentgrass (Agrostis stolonifera) and lettuce (Lactuca sativa cv. L., Iceberg), in 24-well plates. Phytotoxicity was ranked visually. The ranking of phytotoxic activity was based on a scale of 0 to 5 with 0 showing no effect and 5 no growth.

Series [7] concerns bentgrass (Agrostis stolonifera). Description: In vitro phytotoxicity assay, bentgrass. As to conditions: 1 mg/mL; 10% acetone; scale of 0 to 5, 0 = no effect, 5 = no growth. How it is done:
as §1

The nature of series [8]: in vitro. The series is classed as cell-based, human. As to conditions: human, concentration causing 50% growth inhibition. How it is done:
(§2) In vitro cytotoxicity was determined against a panel of mammalian cells that included kidney fibroblast (Vero), kidney epithelial (LLC-PK11), malignant melanoma (SK-MEL), oral epidermal carcinoma (KB), breast ductal carcinoma (BT-549), and ovary carcinoma (SK-OV-3) cells Doxorubicin was used as a positive control.

Series [9] is described as follows: in vitro. The series is classed as cell-based, pig. Particulars: pig; concentration causing 50% growth inhibition; read-out: Cytotoxic activity IC50, LLC-PK11. The method, then:
as §2

For series [10] the following is noted: intraperitoneal, subcutaneous, or intravenous injections up to 100 mg/kg/day; cited from earlier work.
Series [11] relates to BT-549 (human breast carcinoma, ductal). Description: in vitro. The series is classed as cell-based. As to conditions: concentration causing 50% growth inhibition; read-out: Cytotoxic activity IC50, BT-549. The method, then: as §2
For series [12], the system named is KB (human epidermal carcinoma). Description: in vitro. The series is classed as cell-based. As to conditions: concentration causing 50% growth inhibition; read-out: Cytotoxic activity IC50, KB. The method, then: as §2
Series [13] relates to SK-MEL (human malignant melanoma). Description: in vitro. The series is classed as cell-based. Particulars: concentration causing 50% growth inhibition; read-out: Cytotoxic activity IC50, SK-MEL. How it is done:
as §2

Series [14] has as its system SK-OV-3 (human ovary carcinoma). Description: in vitro. The series is classed as cell-based. As to conditions: concentration causing 50% growth inhibition; read-out: Cytotoxic activity IC50, SK-OV-3. The method, then: as §2
In series [15] the test system is LLC-PK11 (pig kidney epithelial). Description: in vitro. As to conditions: concentration causing 50% growth inhibition; read-out: Cytotoxic activity IC50, LLC-PK11. The series is classed as cell-based. The method, then:
as §2

[16] abbreviates: PO, 100 mg/kg × 3 days, P. berghei.
The mark [17] stands for this setting: P. falciparum D6, read-out: Chloroquine-Sensitive (D6)-Strain IC50.
Setting [18] is: P. falciparum D6, read-out: Chloroquine-Sensitive (D6)-Strain IC50 (ng/mL).
Setting [19] is: highest concentration tested […], read-out: Cytotoxicity to Vero Cells IC50.
The mark [20] stands for this setting: read-out: Cytotoxicity to Vero cells.
The mark [21] stands for this setting: read-out: Cytotoxic activity IC50, BT-549.
The mark [22] stands for this setting: read-out: Cytotoxic activity IC50, KB.
Where [23] appears, read: read-out: Cytotoxic activity IC50, SK-MEL.
The mark [24] stands for this setting: read-out: Cytotoxic activity IC50, SK-OV-3.

For `C[C@@H]1CC[C@H]2[C@@H](C)C(=O)O[C@@H]3O[C@@]4(C)CC[C@@H]1[C@]32OO4` [Artemisinin, reference compound], the “Chloroquine-Sensitive (D6)-Strain S. I.” value in series [1] is >850. In addition, in [2], the “Chloroquine-Resistant (W2)-Strain S. I.” value is reported as >1586.6. Besides, the “Cytotoxicity to Vero Cells IC50” value in series [3] is “NC (not cytotoxic at the highest concentration tested (4760 ng/mL))”.

In general, pIC50 refers to the IC50 on a negative log10 scale, so that one unit is a factor of ten. `CCN(CC)CCCC(C)Nc1ccnc2cc(Cl)ccc12` (stereo not drawn) [Chloroquine, reference compound]: in [1] (D6, read-out: Chloroquine-Sensitive (D6)-Strain IC50), the pIC50 is 7.52. Further, the IC50 in series [1] (D6, read-out: Chloroquine-Sensitive (D6)-Strain IC50 (ng/mL)) was found to be 16 ng/mL. For the same compound, in series [2], the pIC50 was 6.51 and the IC50 amounted to 160 ng/mL. Also, the “Cytotoxicity to Vero Cells IC50” value in [3] is reported as “NC (not cytotoxic at the highest concentration tested (4760 ng/mL))”. Besides, in series [4] (setting [16]), the “Cure (mice without parasitemia till day 28 post-infection)” value is recorded as 2/5, the “MST (mean survival time)” value was found to be 28 days, the “Survival (animals that survived day 28/total animals in group)” value was 5/5 and the “Day of Death (post infection)” value is on record as 28/28/28/28/28. In addition, in series [4] (setting [16]), the “% Parasitemia Suppression Day 5” value was 100% and the “% Parasitemia Suppression Day 7” value was 100%.

As to `CC(=O)OC1C2OC2C(C)(O)C(=O)C(C)CC=CC2C(O)C(C)=C(C)C3C(Cc4ccccc4)NC(=O)C213` [Compound 1, (3S,4R,7S,8S,9R,16S,18R,19R,20S,21S)-19,20-epoxycytochalasin C], the negative-log IC50 (pIC50) in series [1] (setting [17]) is 7.15; in [2], 7.30; in “in vitro [8]” (setting [21]) it was < 5.00; in the series “in vitro [8]” (setting [22]), < 5.00; in “in vitro [8]” (setting [23]), 5.10; in “in vitro [8]” (setting [24]), < 5.00. Also, in the series “in vitro [9]”, the pIC50 was < 5.00. The IC50 in [1] (setting [18]) is 37 ng/mL; in series [2], 28 ng/mL; in “in vitro [5]” (setting [19]) it was > 4.76 µg/mL; in “in vitro [5]” (setting [20]), > 4.76 µg/mL. Besides, in series [1], the “Chloroquine-Sensitive (D6)-Strain S. I.” value is on record as >128.6. The “Chloroquine-Resistant (W2)-Strain S. I.” value in series [2] is reported as >170. Moreover, in series [6], the “Phytotoxic activity, Lettuce (ranking)” value is reported as 3. In series [7], the “Phytotoxic activity, Bentgrass (ranking)” value was 2. In addition, the “MST (mean survival time)” value in series [4] (setting [16]) is 5.2 days. For the same compound, the “Survival (animals that survived day 28/total animals in group)” value in series [4] (setting [16]) is on record as 0/5. Also, the “Day of Death (post infection)” value in series [4] (setting [16]) is 17/5/3/1/0. Further, in series [4] (setting [16]), the “% Parasitemia Suppression Day 5” value turned out to be 33.9%. Besides, the “% Parasitemia Suppression Day 7” value in series [4] (setting [16]) is reported as 71.4%. Further, the “Animals that died due to drug induced toxicity” value in series [4] (oral, 100 mg/kg/day for 3 days) is recorded as “Three out of 5”.

On to `C=C1C(C)C2C(Cc3ccccc3)NC(=O)C23C(C=CCC(C)C(=O)C(C)(O)C2OC2C3OC(C)=O)C1O` [Compound 2, (3S,4R,5S,7S,8S,9R,16S,18R,19R,20S,21S)-19,20-epoxycytochalasin D], for which the pIC50 was 7.40 in [1] (setting [17]); 7.40 in [2]; 5.11 in “in vitro [8]” (setting [21]); < 5.00 in the series “in vitro [8]” (setting [22]); < 5.00 in “in vitro [8]” (setting [23]); < 5.00 in “in vitro [8]” (setting [24]). In “in vitro [9]”, the pIC50 is 5.08. For the same compound, the IC50 in series [1] (setting [18]) was 22 ng/mL; in series [2], 20 ng/mL; in the series “in vitro [5]” (setting [19]), > 4.76 µg/mL; in “in vitro [5]” (setting [20]), > 4.76 µg/mL. The “Chloroquine-Sensitive (D6)-Strain S. I.” value in series [1] is on record as >216.3. The “Chloroquine-Resistant (W2)-Strain S. I.” value in series [2] is >238. Also, in series [6], the “Phytotoxic activity, Lettuce (ranking)” value is recorded as 3. For the same compound, the “Phytotoxic activity, Bentgrass (ranking)” value in series [7] is given as 3.

As for `CC(=O)OC1C2OC2C(C)C(=O)C(C)CC=CC2C(O)C(C)=C(C)C3C(Cc4ccccc4)NC(=O)C213` [Compound 3, (3S,4R,7S,8S,9R,16(S),18S,19S,20R,21S)-18-deoxy-19,20-epoxycytochalasin C], the pIC50 in [1] (setting [17]) is 6.25; in series [2], 6.72; in “in vitro [8]” (setting [21]), 5.16; in “in vitro [8]” (setting [22]), < 5.00; in “in vitro [8]” (setting [23]), < 5.00; in “in vitro [8]” (setting [24]) it was < 5.00. The pIC50 in the series “in vitro [9]” was < 5.00. Besides, the IC50 is 280 ng/mL in series [1] (setting [18]), 100 ng/mL in [2] and > 4.76 µg/mL in the series “in vitro [5]” (setting [19]). Also, in series [1], the “Chloroquine-Sensitive (D6)-Strain S. I.” value was >17. In addition, the “Chloroquine-Resistant (W2)-Strain S. I.” value in [2] is recorded as >47.6. Further, in series [6], the “Phytotoxic activity, Lettuce (ranking)” value came out at 3. In series [7], the “Phytotoxic activity, Bentgrass (ranking)” value is 4.

As for `C=C1[C@@H](C)[C@H]2[C@H](Cc3ccccc3)NC(=O)[C@]23OC(=O)/C=C/[C@H](O)CCC[C@@H](C)C/C=C/[C@H]3[C@@H]1O` [Cytochalasin B], the “Toxicity in animal models at therapeutic doses” value (shortened to “Toxicity in animal models”) in series [10] is on record as “no toxicity”.

With `C=C1[C@@H](C)[C@H]2[C@H](Cc3ccccc3)NC(=O)[C@]23[C@H](OC(C)=O)/C=C/[C@@](C)(O)C(=O)[C@@H](C)C/C=C/[C@H]3[C@@H]1O` [Cytochalasin D], the “Toxicity in animal models” value in series [10] was “no toxicity”.

As to `C[C@H]1C/C=C/[C@H]2[C@@H]3O[C@]3(C)[C@@H](C)[C@H]3[C@H](Cc4ccccc4)NC(=O)[C@]32OC(=O)O/C=C/[C@@](C)(O)C1=O` [Cytochalasin E], in series [10], the “Toxicity in animal models” value is on record as “no toxicity”.

With `COc1cccc2c1C(=O)c1c(O)c3c(c(O)c1C2=O)C[C@@](O)(C(=O)CO)C[C@@H]3O[C@H]1C[C@H](N)[C@H](O)[C@H](C)O1` [Doxorubicin, reference compound], the pIC50 in [11] is 5.74; in series [12], 5.67; in [13] it was 5.89; in [14], 5.83; in [15], 5.89.

The values above are taken from publication PMC6413121, “Antiplasmodial and Cytotoxic Cytochalasins from an Endophytic Fungus, Nemania sp. UM10M, Isolated from a Diseased Torreya taxifolia Leaf” (Molecules, 2019).
